One data set deals with HIV-1 strain RoJo. Nature of the data set: PBMC time-of-addition assay (RT in cell-free supernatant at 6 days). In kind it is cell-based. The settings on record: for IC50: Human immunodeficiency virus 1, PBMC; for increase in IC50 (loss in potency): 24 h pretreatment. The protocol: Peripheral blood monocular cells (PBMCs) were obtained from normal hepatitis and HIV-1 negative donors by ficoll hypaque gradient separation. The mononuclear cells were washed to remove residual separation media, counted, viability determined and resuspended in RPMI 1640 medium supplemented with 15 % FBS (heat inactivated), 2 mM L-glutamine, 100 U/mL penicillin, 100 μg/mL streptomycin, and 10 μg/mL gentamycin with 2 μg/mL phytohemagluttin (PHA) at 1×10^6 cells/mL. The cells were cultured for 48 to 72 h at 37° C., 5% CO2. Following incubation, cells were collected by centrifugation, washed and resuspended in RPMI 1640 supplemented with 15% FBS (heat inactivated), 2 mM L-glutamine, 100 U/mL penicillin, 100 μg/mL streptomycin, and 10 μg/mL gentamycin with 20 U/mL recombinant IL-2 (R & D Systems, Minneapolis, Minn.). IL-2 was included in the culture medium to maintain the cell division initiated by the PHA mitogenic stimulation, and promote optimal growing conditions for the PBMCs. The cultures were then maintained until use by ½ culture volume change with fresh IL-2 containing medium every 3 days.
(§1) Human peripheral blood mononuclear cells from a minimum of 2 donors, that have been blasted with PHA and IL-2, were counted, viability determined by Trypan Blue dye exclusion and mixed in equal ratios. Pooled donors were used to minimize the variability observed between individual donors which results from quantitative and qualitative differences in HIV infection and overall response to the PHA and IL-2 of primary lymphocyte populations. The cells were resuspended at 1×10^6 cells/mL in RPMI 1640 without phenol red supplemented with 15% Fetal Bovine Serum (heat inactivated), 2 mM L-glutamine, 100 U/mL penicillin, 100 μg/mL streptomycin, 10 μg/Ln gentamycin and IL-2 (20 U/mL, R&D Systems, Minneapolis, Minn.). Fifty microliters of cells were then distributed to the inner 60 wells of a 96 well round bottom microtiter culture plate in a standard format developed by the Infectious Disease Research department of Southern Research Institute. Each plate contains cell control wells (cells only), virus control wells (cells plus virus), and experimental wells (drug plus cells plus virus). Alternatively, cells were cultured in T25 cm^2 or T75 cm^2 tissue culture flasks at a starting density of 1×10^6 cells per ml. Serially diluted compounds were added to the microtiter plate or tissue culture flask followed by the appropriate pre-titered strain of HIV-1. For virus replication inhibition experiments the HIV-1 strain RoJo was used. This is a low passage presumable subtype B pediatric isolate with a syncytium inducing (SI) phenotype in MT-2 cells isolated by Southern Research Institute personnel. All samples were assayed in triplicate where possible with an accompanying determination of compound toxicity. The final volume per well in the microtiter plates was 200 μL. The final volume in the tissue culture flask varied depending upon experimental design and flask size. Assays were incubated for 6 days in a humidified atmosphere at 37° C., 5% CO2, after which supernatants were collected, for analysis of RT activity and cell viability by MTS dye reduction. Culture were also examined microscopically, any abnormalities noted, and in the case of tissue culture flasks cell counts and viability determined by Trypan Blue Dye exclusion.
Time-of-addition assays were performed with PBMCs in two ways. For both assays, PBMCs were isolated and cultured under the conditions as described above. Time-of-addition assays were carried out in either a tissue culture flask format (T-75 cm^2) or in microtiter wells. In both cases due to the lack of plastic adherence and heterogeneity of the PBMC population for susceptibility to infection, it was not possible to use complete removal of virus following a timed adsorption to synchronize the infection and limit the assay to a single round of infection. […]

Data set [1] concerns PBMCs. The data set is described as follows: PBMC cytotoxicity in time-of-addition assay. In kind it is cell-based, Human.
Excerpt: as §1
Time-of-addition assays were performed with PBMCs in two ways. For both assays, PBMCs were isolated and cultured under the conditions as described above. Time-of-addition assays were carried out in either a tissue culture flask format (T-75 cm^2) or in microtiter wells. In both cases due to the lack of plastic adherence and heterogeneity of the PBMC population for susceptibility to infection, it was not possible to use complete removal of virus following a timed adsorption to synchronize the infection and limit the assay to a single round of infection. Therefore, serial washing by partial removal of the media was used to reduce the concentration of virus and compound (if required) in the assay. Compound addition in relationship to antiviral activity was either assessed over a short addition interval immediately before or after virus addition or for up to 72 h post infection. For all assays virus replication was assessed at 6 days of culture by determining RT expression in cell-free supernatants. In the tissue culture flask format cells were counted and Trypan Blue Dye exclusion used to monitor compound cytotoxicity. Cell viability in the 96 well microtiter plate format was determined by MTS dye reduction. AZT was used as a positive control.
At assay termination the assay plates were stained with the soluble tetrazolium-based dye MTS (CellTiter96® Reagent Promega) to determine cell viability and quantify compound toxicity. MTS is metabolized by the mitochondria enzymes of metabolically active cells to a soluble formazan product, allowing the rapid quantitative analysis cell viability and compound cytotoxicity. […] At termination of the assay 20 μL of MTS reagent was added per well and incubated for 4 h at 37° C. […]

Data set [2] concerns PBMCs. Nature of the data set: PBMC viability by Trypan Blue dye exclusion. In kind it is cell-based, Human.
Excerpt: as §1
Experiments were conducted using flow cytometry to assess the effect of the IMG compounds and cannabidiol on induction of apoptosis. Briefly, compound-treated PBMCs were assayed for apoptosis using a BrdU methodology. Table 6 summarizes the effects of the IMG Compounds on cell cycle and cell viability by Trypan Blue Dye exclusion. Table 7 reduces the changes in the cell cycle to a ratio based upon the percent of cells in G2-G1. G2-G1 cells represent transition cells that are in either G2 or G1, that cannot be distinguished based upon DNA content by flow cytometry. […] This ratio cannot be used as a quantitative factor to measure fold-increases or decreases between population, but rather to access trends in the cell cycle.

Setting [3] is: 4 h, −4 h pre (relative to infection).
[4] abbreviates: pre-treat 0 h prior to infection.
Setting [5] is: pre-treat 2 h prior to infection.
Setting [6] is: pre-treat 4 h prior to infection.
Setting [7] is: pre-treat 24 h prior to infection.
Where [8] appears, read: −4 h pre (relative to infection).

Broadly, the IC50 is the point on the concentration scale where inhibition reaches its midpoint. With `CC(C)=CCCC1(C)CCc2c(O)cc(C(C)(C)CCCC(C)C)cc2O1` (stereo not drawn) [IG-08, 3,4-Dihydro-2-methyl-2-(4-methyl-3-pentenyl)-7-(1,1,5-trimethylhexyl)-2H-1-benzopyran-5-ol], the “decrease in IC50” value in the data set with HIV-1 strain RoJo (4 h pretreatment) is 4-fold decrease in. The IC50 came out at 6.2 µM in the data set with HIV-1 strain RoJo (setting [3]); 22.5 µM in the data set with HIV-1 strain RoJo (6 h, 6 h post infection); 15.7 µM in the data set with HIV-1 strain RoJo (at infection); 14.2 µM with HIV-1 strain RoJo (setting [4]); 10.4 µM with HIV-1 strain RoJo (setting [5]); 4.1 µM in the data set with HIV-1 strain RoJo (setting [6]). The IC50 in the data set on HIV-1 strain RoJo (setting [7]) came out at 11.9 µM. Further, the TC50 with PBMCs [1] (6 h post infection), in the data set with PBMCs [1] (at infection) and in the data set on PBMCs [1] (setting [8]) was more than 100 µM throughout. The “% Viable Cells” value with PBMCs [2] (15 μM, HIV +) came to 94%; with PBMCs [2] (15 μM, HIV −), 89%; in the data set on PBMCs [2] (30 μM, HIV +), 67%; in the data set with PBMCs [2] (30 μM, HIV −), 62%.

As for `COc1cc(C(C)(C)CCCC(C)C)cc(OC)c1OC` [IG-07, 1-(1,1,5Trimethylhexyl)-3,4,5-trimethoxybenzene], the “increase in IC50 (loss in potency)” value with HIV-1 strain RoJo is reported as “approximately 2 fold”. Besides, the IC50 amounted to 39.5 µM in the data set with HIV-1 strain RoJo (setting [3]); 46.1 µM with HIV-1 strain RoJo (6 h, 6 h post infection); 67 µM in the data set on HIV-1 strain RoJo (at infection); 6.9 µM in the data set on HIV-1 strain RoJo (setting [4]); 6.1 µM in the data set with HIV-1 strain RoJo (setting [5]); 5.3 µM with HIV-1 strain RoJo (setting [6]). The IC50 in the data set with HIV-1 strain RoJo (setting [7]) was determined as 10.8 µM. Further, the TC50 with PBMCs [1] (6 h post infection), in the data set with PBMCs [1] (at infection) and with PBMCs [1] (setting [8]) was more than 100 µM each time. For the same compound, the “% Viable Cells” value is 94% in the data set with PBMCs [2] (5 μM, HIV +); 92% in the data set on PBMCs [2] (5 μM, HIV −); 55% with PBMCs [2] (100 μM, HIV +); 50% in the data set with PBMCs [2] (100 μM, HIV −).

Take `C=C(C)[C@@H]1CCC(C)=C[C@H]1c1c(O)cc(CCCCC)cc1O` [Cannabidiol, reference compound]: the “loss of activity (potency)” value in the data set on HIV-1 strain RoJo (2 h pre-treatment, listed as cannabidiol) is listed as “approximately 10 fold”. Moreover, the “regain of potency (decrease in IC50)” value is “activity at 2, regain 3.3-fold” in the data set with HIV-1 strain RoJo (4 h pretreatment) and 3.3 fold with HIV-1 strain RoJo (4 h pretreatment, listed as cannabidiol). For the same compound, the “increase in IC50 (loss in potency)” value in the data set on HIV-1 strain RoJo is reported as “at 4 h then a 17-fold”; with HIV-1 strain RoJo (listed as cannabidiol) it was 17 fold. For the same compound, the IC50 with HIV-1 strain RoJo (setting [3]) was 12.1 µM; in the data set on HIV-1 strain RoJo (6 h, 6 h post infection), 12.1 µM; in the data set on HIV-1 strain RoJo (at infection) it was 13.8 µM; in the data set with HIV-1 strain RoJo (setting [4]), 0.58 µM; in the data set with HIV-1 strain RoJo (setting [5]) it was 5 µM; in the data set on HIV-1 strain RoJo (setting [6]) it was 1.5 µM. Besides, in the data set on HIV-1 strain RoJo (setting [7]), the IC50 was determined as 10.5 µM. Besides, the TC50 in the data set on PBMCs [1] (6 h post infection), in the data set on PBMCs [1] (at infection) and with PBMCs [1] (setting [8]) was more than 100 µM each time. The “% Viable Cells” value in the data set on PBMCs [2] (1 μM, HIV +) was 94%; in the data set with PBMCs [2] (1 μM, HIV −), 85%; with PBMCs [2] (25 μM, HIV +) it was 55%; in the data set on PBMCs [2] (25 μM, HIV −), 86%; with PBMCs [2] (35 μM, HIV +), 61%; with PBMCs [2] (35 μM, HIV −), 61%.

(Values after patent US20040242870A1, “Antiviral methods and compounds” (priority 2000, published 2004).)
